What was measured:
[1] = test system: HCT 116 MTAP wild-type cells; test: Human colon cancer HCT116 cell proliferation inhibition test (MTAP wild-type cells, CellTiter-Glo, 6 days); assay type: cell-based; conditions: HCT-116, 144 h
Procedure: (§1) • 1. HCT 116 MTAP knockout and MTAP wild-type cells were plated in 96-well flat bottom 5 plates, and cultured overnight with McCoy's 5A medium containing […]+1% penicillin-streptomycin at 37° C. and 5% CO2. • 2. On the next day, the compound was dissolved with DMSO, diluted with DMSO and medium successively and transferred to the cell plate. The final concentration of the compound was 10 μM, the compound was diluted 4 times, with 9 concentration gradients, and DMSO control was added. • 3. Cells that have not been treated with the compound were removed. CellTiter-Glo Luminescent Cell Viability Assay (Promega) was used to detect cell viability, the operation was performed with reference to the package insert of the kit, and then the cell plate was placed on EnVision Multilabel Reader to detect the cold light signal. • 4. Meanwhile, the cell plate treated with the compound was cultured at 37° C. and 5% CO2 for 6 consecutive days. • 5. Then, CellTiter-Glo was also used to detect cell viability. • 6. Finally, the four-parameter dose-response curve module of GraphPad Prism v 9.2.0 software was used to plot the dose-response curve and calculate the IC50 for proliferation inhibition (unit: nM).

[2] = test system: HCT 116 MTAP knockout cells; test: Human colon cancer HCT116 cell proliferation inhibition test (MTAP knockout cells, CellTiter-Glo, 6 days); assay type: cell-based; conditions: Homo sapiens, HCT-116, 144 h
Procedure: as §1

Cn1ncc(-c2ccc3c(=O)[nH]nc(CN)c3c2)c1-c1c(F)c(Cl)cc(N2CC(C)(F)C2)c1C#N [Example 18, 2-(4-(4-(aminomethyl)-1-oxo-1,2-dihydrophthalazin-6-yl)-1-methyl-1H-pyrazol-5-yl)-4-chloro-3-fluoro-6-(3-fluoro-3-methylazetidin-1-yl)benzonitrile]
IC50 [1]: 5600 nM
IC50 [2]: 123 nM

Cn1ncc(-c2ccc3c(=O)[nH]nc(CN)c3c2)c1-c1c(F)c(Cl)cc(N2CC3(C2)CC3(F)F)c1C#N [Example 29, 2-(4-(4-(aminomethyl)-1-oxo-1,2-dihydrophthalazin-6-yl)-1-methyl-1H-pyrazol-5-yl)-4-chloro-6-(1,1-difluoro-5-azaspiro[2.3]hexan-5-yl)-3-fluorobenzonitrile]
IC50 [1]: 1150 nM
IC50 [2]: 20 nM

Cn1ncc(-c2ccc3c(=O)[nH]nc(CN)c3c2)c1-c1c(F)c(Cl)cc(N2CC(C(F)F)C2)c1C#N [Example 30, 2-(4-(4-(aminomethyl)-1-oxo-1,2-dihydrophthalazin-6-yl)-1-methyl-1H-pyrazol-5-yl)-4-chloro-6-(3-(difluoromethyl)azetidin-1-yl)-3-fluorobenzonitrile]
IC50 [1]: 2660 nM
IC50 [2]: 44 nM

COC1CN(c2cc(OC3CC3)c(C#N)c(-c3c(-c4ccc5c(=O)[nH]nc(CN)c5c4)cnn3C)c2F)C1 [Example 23, 2-(4-(4-(aminomethyl)-1-oxo-1,2-dihydrophthalazin-6-yl)-1-methyl-1H-pyrazol-5-yl)-6-cyclopropoxy-3-fluoro-4-(3-methoxyazetidin-1-yl)benzonitrile]
IC50 [1]: 3660 nM
IC50 [2]: 120 nM

Cn1ncc(-c2ccc3c(=O)[nH]nc(CN)c3c2)c1-c1c(F)c(N2CCCC2)cc(OC2CC2)c1C#N [Example 16, 2-(4-(4-(aminomethyl)-1-oxo-1,2-dihydrophthalazin-6-yl)-1-methyl-1H-pyrazol-5-yl)-6-cyclopropoxy-3-fluoro-4-(pyrrolidin-1-yl)benzonitrile]
IC50 [1]: 2540 nM
IC50 [2]: 21 nM

Cn1ncc(-c2ccc3c(=O)[nH]nc(CN)c3c2)c1-c1c(F)c(Cl)cc(N2CC(F)(F)C2)c1C#N [Example 14, 2-(4-(4-(aminomethyl)-1-oxo-1,2-dihydrophthalazin-6-yl)-1-methyl-1H-pyrazol-5-yl)-4-chloro-6-(3,3-difluoroazetidin-1-yl)-3-fluorobenzonitrile]
IC50 [1]: 2360 nM
IC50 [2]: 14 nM

COC1CCN(c2cc(OC3CC3)c(C#N)c(-c3c(-c4ccc5c(=O)[nH]nc(CN)c5c4)cnn3C)c2F)C1 (stereo not shown) [Example 26, 2-(4-(4-(aminomethyl)-1-oxo-1,2-dihydrophthalazin-6-yl)-1-methyl-1H-pyrazol-5-yl)-6-cyclopropoxy-3-fluoro-4-(3-methoxypyrrolidin-1-yl)benzonitrile]
IC50 [1]: 2490 nM
IC50 [2]: 34 nM

Cn1ncc(-c2ccc3c(=O)[nH]nc(CN)c3c2)c1-c1c(F)c(Cl)cc(N2CCC(F)(F)C2)c1C#N [Example 19, 2-(4-(4-(aminomethyl)-1-oxo-1,2-dihydrophthalazin-6-yl)-1-methyl-1H-pyrazol-5-yl)-4-chloro-6-(3,3-difluoropyrrolidin-1-yl)-3-fluorobenzonitrile]
IC50 [1]: 3260 nM
IC50 [2]: 80 nM

Cn1ncc(-c2ccc3c(=O)[nH]nc(CN)c3c2)c1-c1c(F)c(N2CCC(O)C2)cc(OC2CC2)c1C#N (stereo not shown) [Example 25, 2-(4-(4-(aminomethyl)-1-oxo-1,2-dihydrophthalazin-6-yl)-1-methyl-1H-pyrazol-5-yl)-6-cyclopropoxy-3-fluoro-4-(3-hydroxypyrrolidin-1-yl)benzonitrile]
IC50 [2]: 567 nM

Cn1ncc(-c2cc(C3CC3)c3c(=O)[nH]nc(CN)c3c2)c1-c1c(F)cc2ccccc2c1C#N [Example 3, 2-(4-(4-(aminomethyl)-8-cyclopropyl-1-oxo-1,2-dihydrophthalazin-6-yl)-1-methyl-1H-pyrazol-5-yl)-3-fluoro-1-naphthalenenitrile]
IC50 [1]: 1050 nM
IC50 [2]: 29 nM

From patent US20240408088A1, “PYRAZOLE DERIVATIVE, AND PREPARATION METHOD THEREFOR AND USE THEREOF IN MEDICINE” (Abbisko Therapeutics Co., Ltd., priority 2021, published 2024)
